Structures are written as SMILES. Where a name gives a salt, the structure may show the parent alone.

For the experiment, the target named is T1, human muscarinic acetylcholine M3 receptor (Homo sapiens, UniProt P20309).
T1 construct: expressed in transfected cells; host or cells: CHO cells, stably transfected; membranes
T1 sequence (P20309 whole entry): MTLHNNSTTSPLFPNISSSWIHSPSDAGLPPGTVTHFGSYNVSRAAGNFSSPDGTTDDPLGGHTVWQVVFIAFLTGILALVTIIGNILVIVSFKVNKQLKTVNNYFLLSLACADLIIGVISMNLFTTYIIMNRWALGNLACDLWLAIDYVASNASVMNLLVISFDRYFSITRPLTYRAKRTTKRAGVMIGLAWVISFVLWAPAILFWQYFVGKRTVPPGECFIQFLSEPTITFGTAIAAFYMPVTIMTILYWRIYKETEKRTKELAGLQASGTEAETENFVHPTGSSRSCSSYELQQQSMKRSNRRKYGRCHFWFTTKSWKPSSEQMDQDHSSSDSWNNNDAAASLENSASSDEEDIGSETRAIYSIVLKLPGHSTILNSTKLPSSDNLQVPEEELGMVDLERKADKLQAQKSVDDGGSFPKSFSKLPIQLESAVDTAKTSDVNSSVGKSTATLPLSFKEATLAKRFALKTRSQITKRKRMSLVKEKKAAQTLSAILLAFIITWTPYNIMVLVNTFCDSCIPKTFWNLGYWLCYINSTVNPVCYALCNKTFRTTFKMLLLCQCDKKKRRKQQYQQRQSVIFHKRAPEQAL
In words: biochemical. The experiment is classed as binding.
On to `O=C(NCC[N+]12CCC(CC1)[C@@H](OC(=O)C(O)(c1ccccc1)c1ccccc1)C2)C1(O)CC1` [Example 221, (R)-1-[2-[(1-Hydroxy-cyclo-propanecarbonyl)-amino]-ethyl]-3-(2-hydroxy-2,2-diphenyl-acetoxy)-1-azonia-bicyclo[2.2.2]-octane hexafluorophosphate], for which the affinity corresponds to a Ki of 1.3 nM.

For `O=C(C[N+]12CCC(CC1)[C@@H](OC(=O)C(O)(c1ccccc1)c1ccccc1)C2)Nc1ccon1` [Example 242, (R)-3-(2-Hydroxy-2,2-diphenyl-acetoxy)-1-(isoxazol-3ylcarbamoylmethyl)-1-azonia-bicyclo[2.2.2]octane bromide], the inhibitory constant (Ki) was 0.3 nM. This Ki lies about 4.3-fold lower than the previous one.

`O=C(C[N+]12CCC(CC1)[C@@H](OC(=O)C(O)(c1ccccc1)c1ccccc1)C2)Nc1ccccc1` [Example 52, (R)-3-(2-Hydroxy-2,2-diphenyl-acetoxy)-1-phenylcarbamoylmethyl-1-azonia-bicyclo[2.2.2]octane] had a Ki of 1.9 nM.

`O=C(C[N+]12CCC(CC1)[C@@H](OC(=O)C(O)(c1cccs1)c1cccs1)C2)Nc1ccncn1` [Example 244, (R)-3-(2-Hydroxy-2,2-di-thiophen-2-yl-acetoxy)-1-(pyrimidin-4-ylcarbamoylmethyl)-1-azonia-bicyclo[2.2.2]octane bromide] returned a Ki of 0.3 nM.

`O=C(NCC[N+]12CCC(CC1)[C@@H](OC(=O)C(O)(c1ccccc1)c1ccccc1)C2)c1cnccn1` [Example 138, (R)-3-(2-Hydroxy-2,2-diphenyl-acetoxy)-1-(2-[{pyrazine-2-carbonyl)-amino]-ethyl}-1-azonia-bicyclo[2.2.2]octane trifluoroacetate] came in with a Ki of 2.2 nM.

As for `O=C(C[N+]12CCC(CC1)[C@@H](OC(=O)C(O)(c1cccs1)c1cccs1)C2)Nc1cnccn1` [Example 159, (R)-3-(2-Hydroxy-2,2-di-thiophen-2-yl-acetoxy)-1-(pyrazin-2-ylcarbamoylmethyl)-1-azonia-bicyclo[2.2.2]octane bromide], the Ki stood at 0.7 nM.

`O=C(Cc1ccccc1)NCCC[N+]12CCC(CC1)[C@@H](OC(=O)C(O)(c1ccccc1)c1ccccc1)C2` [Example 34, (R)-3-(2-Hydroxy-2,2-diphenyl-acetoxy)-1-(3-phenylacetylamino-propyl)-1-azonia-bicyclo[2.2.2]octane trifluoroacetate] showed a Ki of 2.3 nM. This Ki lies about 3.3-fold higher than the previous one.

As for `O=C(C[N+]12CCC(CC1)[C@@H](OC(=O)C(O)(c1cccs1)c1cccs1)C2)Nc1ccccc1` [Example 76, (R)-3-(2-Hydroxy-2,2-di-thiophen-2-yl-acetoxy)-1-phenylcarbamoylmethyl-1-azonia-bicyclo[2.2.2]octane trifluoroacetate], the affinity corresponds to a Ki of 1.1 nM.

The compound `O=C(C[N+]12CCC(CC1)[C@@H](OC(=O)C(O)(c1ccccc1)c1ccccc1)C2)NCCc1cccs1` [Example 96, (R)-3-(2-Hydroxy-2,2-diphenyl-acetoxy)-1-[(2-thiophen-2-yl-ethylcarbamoyl)-methyl]-1-azonia-bicyclo[2.2.2]octane trifluoroacetate] showed an inhibition constant (Ki) of 4.6 nM.

(Values after US8168654B2 (priority 2003, dated 2012).)
